The test system of the test is YAP/TAZ-TEAD transcription. Nature of the test: Reporter gene assay for measuring the inhibition of YAP/TAZ-TEAD transcription (TEAD-responsive element luciferase reporter in Hek293T cells). In kind it is cell-based. The settings on record: Hek293T cells transiently transfected with TEAD-responsive element luciferase reporter, 24 hours incubation. The gist of the method:
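Hek293T cells transiently transfected with TEAD-responsive luciferase reporter, exposed to compound for 24 h at 37° C/5% CO2, then read by luminescence. Percent inhibition normalized to vehicle (0%) and positive control inhibitor (100%); EC50 reported as activity ranges.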
On the technique in general: In a reporter assay the amount or activity of a reporter protein is the signal.

Here are results for 31 compounds from patent US20230279016A1, “Tetrahydropyrazolopyrimidines and Related Analogs for Inhibiting YAP/TAZ-TEAD” (THE KATHOLIEKE UNIVERSITEIT LEUVEN, priority 2021, published 2023).

Turning to `C=CC(=O)NCC1CN(c2ccc(C(F)F)nc2)c2ccnn2C1` (single isomer, unassigned) [Cpd. No. 010-En2, (R)- or (S)-N-((4-(6-(difluoromethyl)pyridin-3-yl)-4,5,6,7-tetrahydropyrazolo[1,5-a]pyrimidin-6-yl)methyl)acrylamide], the concentration giving a half-maximal response (EC50) – broadly, the concentration needed to bring the measured effect to its halfway point – was less than 1000 nM. The compound `C=CC(=O)NCC1CN(c2cccc(C(F)(F)F)c2)c2ccnn2C1` (stereo not shown) [Cpd. No. 003, N-((4-(3-(trifluoromethyl)phenyl)-4,5,6,7-tetrahydropyrazolo[1,5-a]pyrimidin-6-yl)methyl)acrylamide] gave a concentration for a half-maximal effect (EC50) (Homo sapiens, HEK-293T, 24 h) of less than 1000 nM. Still for that read-out and setting: the value for `C=CC(=O)NCC1CN(c2ccc(C(F)(F)F)cc2)c2cnc(C(F)(F)F)n2C1` (stereo not shown) [Cpd. No. 094, N-((6-(trifluoromethyl)-1-(4-(trifluoromethyl)phenyl)-1,2,3,4-tetrahydroimidazo[1,5-a]pyrimidin-3-yl)methyl)acrylamide] was less than 1000 nM. Turning to `C=CC(=O)NCC1CN(c2ccc(Cl)cc2)c2ccnn2C1` (single isomer, unassigned) [Cpd. No. 005-En2, (R)- or (S)-N-((4-(4-chlorophenyl)-4,5,6,7-tetrahydropyrazolo[1,5-a]pyrimidin-6-yl)methyl)acrylamide], the EC50 is less than 1000 nM. Still for that read-out and setting: the same measure for `C=CC(=O)NCC1CN(c2ccc(C(F)(F)F)cc2)c2cc(C3CC3)nn2C1` (single isomer, unassigned) [Cpd. No. 031-En1, (R)- or (S)-N-((2-cyclopropyl-4-(4-(trifluoromethyl)phenyl)-4,5,6,7-tetrahydropyrazolo[1,5-a]pyrimidin-6-yl)methyl)acrylamide]: less than 1000 nM. `C=CC(=O)NC1CN(c2ccc(C(F)(F)F)c(F)c2)c2ccnn2C1` (stereo not shown) [Cpd. No. 064, N-(4-(3-fluoro-4-(trifluoromethyl)phenyl)-4,5,6,7-tetrahydropyrazolo[1,5-a]pyrimidin-6-yl)acrylamide] showed an EC50 (Homo sapiens, HEK-293T, 24 h) of less than 1000 nM. `C=CC(=O)NCC1CN(c2ccc(C(F)F)cc2)c2ccnn2C1` (single isomer, unassigned) [Cpd. No. 009-En2, (R)- or (S)-N-((4-(4-(difluoromethyl)phenyl)-4,5,6,7-tetrahydropyrazolo[1,5-a]pyrimidin-6-yl)methyl)acrylamide] gave a concentration for a half-maximal effect (EC50) of less than 1000 nM.

As for `C=CC(=O)NCC1CN(S(=O)(=O)c2ccc(C(F)(F)F)cc2)c2ccnn2C1` (stereo not shown) [Cpd. No. 045-En2, N-((4-((4-(trifluoromethyl)phenyl)sulfonyl)-4,5,6,7-tetrahydropyrazolo[1,5-a]pyrimidin-6-yl)methyl)acrylamide], the EC50 is greater than 20000 nM. Still for that read-out and setting: the same measure for `C=CC(=O)NCC1CN(c2ccc(C(F)F)cc2)c2ccnn2C1` (single isomer, unassigned) [Cpd. No. 009-En1, (R)- or (S)-N-((4-(4-(difluoromethyl)phenyl)-4,5,6,7-tetrahydropyrazolo[1,5-a]pyrimidin-6-yl)methyl)acrylamide]: 1000 to 20000 nM.

`C#CCNCC1CN(c2ccc(C(F)(F)F)cc2)c2ccnn2C1` (stereo not shown) [Cpd. No. 044, N-((4-(4-(trifluoromethyl)phenyl)-4,5,6,7-tetrahydropyrazolo[1,5-a]pyrimidin-6-yl)methyl)prop-2-yn-1-amine] displayed an EC50 (Homo sapiens, HEK-293T, 24 h) greater than 20000 nM. Still for that read-out and setting: the value for `C#CCN1CC(CNC(=O)C=C)Cn2nccc21` (stereo not shown) [Cpd. No. 057, N-((4-(prop-2-yn-1-yl)-4,5,6,7-tetrahydropyrazolo[1,5-a]pyrimidin-6-yl)-methyl)acrylamide] was greater than 20000 nM. On to `C=CC(=O)NCC1CN(c2ccc(C(F)(F)F)cc2)c2cc(CC3CC3)nn2C1` (single isomer, unassigned) [Cpd. No. 032-En1, (R)- or (S)-N-((2-(cyclopropylmethyl)-4-(4-(trifluoromethyl)phenyl)-4,5,6,7-tetrahydropyrazolo[1,5-a]pyrimidin-6-yl)methyl)acrylamide], for which the half-maximal effective concentration (EC50) was less than 1000 nM.

In turn, `C=CC(=O)NCC1CN(c2ccc(C(F)(F)F)cc2)c2ccnn2C1` (single isomer, unassigned) [Cpd. No. 002-En1, (R)- or (S)-N-((4-(4-(trifluoromethyl)phenyl)-4,5,6,7-tetrahydropyrazolo[1,5-a]pyrimidin-6-yl)methyl)acrylamide] registered an EC50 of less than 1000 nM. Where the note is “Homo sapiens, HEK-293T, 24 h”, `CCC(=O)NCC1CN(Cc2cccc(C(F)(F)F)c2)c2ccnn2C1` (stereo not shown) [Cpd. No. 053, N-((4-(3-(trifluoro-methyl)benzyl)-4,5,6,7-tetrahydropyrazolo[1,5-a]pyrimidin-6-yl)-methyl)propionamide] gave an EC50 greater than 20000 nM.

Consider `C=CC(=O)NCC1CN(C(=O)C2CCCCC2)c2ccnn2C1` (stereo not shown) [Cpd. No. 046, N-((4-(cyclohexanecarbonyl)-4,5,6,7-tetrahydropyrazolo[1,5-a]pyrimidin-6-yl)methyl)acrylamide], for which the EC50 (Homo sapiens, HEK-293T, 24 h) was in the range of 1000 to 20000 nM. The compound `C=CC(=O)NCC1CN(c2cccc(F)c2)c2ccnn2C1` (single isomer, unassigned) [Cpd. No. 004-En1, (R)- or (S)-N-((4-(3-fluorophenyl)-4,5,6,7-tetrahydropyrazolo[1,5-a]pyrimidin-6-yl)methyl)acrylamide] showed a half-maximal effective concentration (EC50) of 1000 to 20000 nM. On to `CS(=O)(=O)NCC1CN(Cc2cccc(C(F)(F)F)c2)c2ccnn2C1` (stereo not shown) [Cpd. No. 054, N-((4-(3-(trifluoro-methyl)benzyl)-4,5,6,7-tetrahydropyrazolo[1,5-a]pyrimidin-6-yl)-methyl)methanesulfonamide], for which the EC50 (Homo sapiens, HEK-293T, 24 h) was greater than 20000 nM. On the same count and under the same terms, the value for `CS(=O)(=O)NC1CN(c2ccc(C(F)(F)F)cc2)c2ccnn2C1` (stereo not shown) [Cpd. No. 067, N-(4-(4-(trifluoromethyl)phenyl)-4,5,6,7-tetrahydropyrazolo[1,5-a]pyrimidin-6-yl)methanesulfonamide] was greater than 20000 nM. In the case of `C=CC(=O)NCC1CN(c2ccc(OC(F)(F)F)cc2)c2cc(C)nn2C1` (single isomer, unassigned) [Cpd. No. 030-En2, (R)- or (S)-N-((2-methyl-4-(4-(trifluoromethoxy)phenyl)-4,5,6,7-tetrahydropyrazolo[1,5-a]pyrimidin-6-yl)methyl)acrylamide], the EC50 was less than 1000 nM.

`C=CC(=O)NCC1CN(c2ccc(OC(F)(F)F)cc2)c2cc(C)nn2C1` (single isomer, unassigned) [Cpd. No. 030-En1, (R)- or (S)-N-((2-methyl-4-(4-(trifluoromethoxy)phenyl)-4,5,6,7-tetrahydropyrazolo[1,5-a]pyrimidin-6-yl)methyl)acrylamide] came in with a 50% effective concentration (EC50) of less than 1000 nM. Same read-out and setting: the same measure for `C=CC(=O)NCC1CN(c2ccc(F)cc2)c2ccnn2C1` (single isomer, unassigned) [Cpd. No. 006-En1, (R)- or (S)-N-((4-(4-fluorophenyl)-4,5,6,7-tetrahydropyrazolo[1,5-a]pyrimidin-6-yl)methyl)acrylamide]: 1000 to 20000 nM; for `C=CC(=O)NCC1CN(c2ccc(C(F)(F)F)cc2)c2cc(C#N)nn2C1` (single isomer, unassigned) [Cpd. No. 033-En1, (R)- or (S)-N-((2-cyano-4-(4-(trifluoromethyl)phenyl)-4,5,6,7-tetrahydropyrazolo[1,5-a]pyrimidin-6-yl)methyl)acrylamide]: 1000 to 20000 nM. Compound `C=CC(=O)NCC1CN(c2ccc(OC(F)(F)F)c(F)c2)c2ccnn2C1` (stereo not shown) [Cpd. No. 018, N-((4-(3-fluoro-4-(trifluoromethoxy)phenyl)-4,5,6,7-tetrahydropyrazolo[1,5-a]pyrimidin-6-yl)methyl)acrylamide] came in with a concentration giving a half-maximal response (EC50) (Homo sapiens, HEK-293T, 24 h) of less than 1000 nM.

In turn, `C=CC(=O)NCC1CN(c2ccc3scnc3c2)c2ccnn2C1` (single isomer, unassigned) [Cpd. No. 026-En1, (R)- or (S)-N-((4-(benzo[d]thiazol-5-yl)-4,5,6,7-tetrahydropyrazolo[1,5-a]pyrimidin-6-yl)methyl)acrylamide] had an EC50 (Homo sapiens, HEK-293T, 24 h) of 1000 to 20000 nM.

Turning to `CCC(=O)NCC1Cc2c(cnn2Cc2cccc(C(N)=O)c2)N(c2ccc(C(F)(F)F)cc2)C1` (stereo not shown) [Cpd. No. 082, 3-((6-(propionamide-methyl)-4-(4-(trifluoromethyl)phenyl)-4,5,6,7-tetrahydro-1H-pyrazolo[4,3-b]pyridin-1-yl)methyl)benzamide], the EC50 was less than 1000 nM.

As to `CS(=O)(=O)NCC1CN(Cc2ccc(C(F)(F)F)cc2)c2ccnn2C1` (stereo not shown) [Cpd. No. 051, N-((4-(4-(trifluoro-methyl)benzyl)-4,5,6,7-tetrahydropyrazolo[1,5-a]pyrimidin-6-yl)-methyl)methanesulfonamide], the EC50 (Homo sapiens, HEK-293T, 24 h) was greater than 20000 nM. Same read-out and setting: the value for `C=CC(=O)NCC1CN(C(=O)c2ccccc2)c2ccnn2C1` (stereo not shown) [Cpd. No. 047, N-((4-benzoyl-4,5,6,7-tetrahydropyrazolo[1,5-a]pyrimidin-6-yl)methyl)acrylamide] was greater than 20000 nM.

In turn, `C=CC(=O)NCC1CN(Cc2ccccc2)c2ccnn2C1` (single isomer, unassigned) [Cpd. No. 049-En2, (R)- or (S)-N-((4-benzyl-4,5,6,7-tetrahydropyrazolo[1,5-a]pyrimidin-6-yl)methyl)acrylamide] gave an EC50 (Homo sapiens, HEK-293T, 24 h) of less than 1000 nM. Same read-out and setting: the value for `Cn1ncc2c1CC(CNS(C)(=O)=O)CN2c1ccc(C(F)(F)F)cc1` (stereo not shown) [Cpd. No. 076, N-((1-methyl-4-(4-(trifluoromethyl)phenyl)-4,5,6,7-tetrahydro-1H-pyrazolo[4,3-b]pyridin-6-yl)methyl)methanesulfonamide] was greater than 20000 nM. `C=CC(=O)NCC1CN(C(=O)C2CCCCC2)c2ccnn2C1` (single isomer, unassigned) [Cpd. No. 046-En1, (R)- or (S)-N-((4-(cyclohexanecarbonyl)-4,5,6,7-tetrahydropyrazolo[1,5-a]pyrimidin-6-yl)methyl)acrylamide]: the EC50 lay within 1000 to 20000 nM. `CCC(=O)NCC1Cc2c(cnn2C)N(c2ccc(OC(F)(F)F)cc2)C1` (stereo not shown) [Cpd. No. 074, N-((1-methyl-4-(4-(trifluoromethoxy)phenyl)-4,5,6,7-tetrahydro-1H-pyrazolo[4,3-b]pyridin-6-yl)methyl)propionamide] came in with a 50% effective concentration (EC50) (Homo sapiens, HEK-293T, 24 h) greater than 20000 nM.
